Where a name gives a salt, the structure may show the parent alone. Blank lines part the entries; values can stand above or below the compound they belong to.
Assays:
[1] = test system: complement alternative pathway; experiment: Biological Test Example 2: complement alternative pathway inhibition, IBL alternative pathway kit, serum from healthy volunteers; format: biochemical, human; settings: LPS-coated plate, 37 °C 1 h, read-out: IC50 for inhibiting alternative pathway
Method: The inhibitory effect of the compounds on the complement alternative pathway was detected using the IBL alternative pathway kit (COMPL AP330 RUO). Serum from healthy volunteers was collected and 1 portion was diluted with a buffer of 20 mM EDTA in gelatin (0.15 mM CaCl2, 141 mM NaCl, 4.5 mM MgCl2, 4.2 mM HEPES, and 0.1% gelatin at pH 7.4) to 50% (v/v), and 1 portion was diluted to 50% (v/v) with a buffer of 20 mM EGTA in gelatin. The compounds were prepared in DMSO to a working solution 100 times the final concentration. Before use, 50% of the above serum was diluted 1/18 with the AP diluent in the kit. 1 part of the compound working solution (v/v) or DMSO (positive control PC) was added to 99 parts of the diluted serum containing EGTA for pretreatment for 30 min, and 1 part of DMSO (v/v) was added to 99 parts of the diluted serum containing EDTA, as negative control (NC). The serum pretreated with the above compounds (or DMSO) was added at […] to the LPS-coated 96-well plate, incubated at 37° C. for 1 h, and the plate was washed 3 times with washing solution in the kit; the conjugated chromogenic substrate was added according to the instruction in the kit, and the absorbance was read at 405 nm with a microplate reader. The inhibitory activity of the compounds on alternative pathway was calculated using the following formula.
OD^CPD was the OD value when the inhibitor was added, OD^NC was the OD value of the negative control, and OD^PC was the OD value of the positive control.
Graphpad was used to perform nonlinear regression on the final concentrations and inhibition rates of the compounds to obtain the IC50 of the compounds for inhibiting the alternative pathway.

FB = FB (Homo sapiens, UniProt P00751); experiment: biochemical
Sequence of FB (P00751 260-764 limits assumed): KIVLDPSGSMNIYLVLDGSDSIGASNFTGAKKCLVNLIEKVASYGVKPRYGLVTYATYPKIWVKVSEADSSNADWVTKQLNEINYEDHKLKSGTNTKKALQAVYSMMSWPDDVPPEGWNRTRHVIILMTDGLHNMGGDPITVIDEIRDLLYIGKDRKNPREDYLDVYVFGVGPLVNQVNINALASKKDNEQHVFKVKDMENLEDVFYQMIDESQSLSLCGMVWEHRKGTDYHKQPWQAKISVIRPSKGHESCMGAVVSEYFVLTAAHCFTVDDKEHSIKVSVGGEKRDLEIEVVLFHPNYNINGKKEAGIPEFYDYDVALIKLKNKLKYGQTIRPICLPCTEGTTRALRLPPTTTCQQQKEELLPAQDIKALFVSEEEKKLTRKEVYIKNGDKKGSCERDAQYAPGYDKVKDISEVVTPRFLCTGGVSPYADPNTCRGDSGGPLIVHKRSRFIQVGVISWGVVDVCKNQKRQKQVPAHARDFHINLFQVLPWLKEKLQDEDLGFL
Sequence of FB (Q91132 23-649 partner limits assumed): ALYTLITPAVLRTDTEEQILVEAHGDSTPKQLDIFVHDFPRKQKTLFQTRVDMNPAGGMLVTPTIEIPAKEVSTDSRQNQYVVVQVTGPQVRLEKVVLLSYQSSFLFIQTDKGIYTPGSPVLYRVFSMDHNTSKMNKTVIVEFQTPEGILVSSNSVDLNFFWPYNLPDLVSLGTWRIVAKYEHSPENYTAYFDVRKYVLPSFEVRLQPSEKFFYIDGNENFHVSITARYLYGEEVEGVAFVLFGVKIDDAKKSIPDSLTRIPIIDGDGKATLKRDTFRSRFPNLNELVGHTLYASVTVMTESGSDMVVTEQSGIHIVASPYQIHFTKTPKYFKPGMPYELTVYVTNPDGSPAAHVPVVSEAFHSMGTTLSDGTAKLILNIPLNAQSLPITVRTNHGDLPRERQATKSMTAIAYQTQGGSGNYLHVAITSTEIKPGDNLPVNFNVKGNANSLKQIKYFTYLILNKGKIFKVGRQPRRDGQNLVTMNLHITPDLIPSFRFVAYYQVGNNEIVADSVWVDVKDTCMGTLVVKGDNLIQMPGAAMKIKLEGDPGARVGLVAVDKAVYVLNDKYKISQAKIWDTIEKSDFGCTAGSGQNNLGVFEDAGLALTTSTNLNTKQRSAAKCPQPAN
Sequence of FB (Q91132 733-984 partner limits assumed): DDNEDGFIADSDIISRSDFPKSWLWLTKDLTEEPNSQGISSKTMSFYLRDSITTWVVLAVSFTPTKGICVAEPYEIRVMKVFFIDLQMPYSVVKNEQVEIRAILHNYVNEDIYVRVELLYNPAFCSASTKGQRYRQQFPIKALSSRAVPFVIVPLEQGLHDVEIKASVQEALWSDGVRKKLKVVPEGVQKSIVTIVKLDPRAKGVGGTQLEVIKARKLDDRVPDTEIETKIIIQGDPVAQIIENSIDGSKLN
Sequence of FB (Q91132 1264-1642 partner limits assumed): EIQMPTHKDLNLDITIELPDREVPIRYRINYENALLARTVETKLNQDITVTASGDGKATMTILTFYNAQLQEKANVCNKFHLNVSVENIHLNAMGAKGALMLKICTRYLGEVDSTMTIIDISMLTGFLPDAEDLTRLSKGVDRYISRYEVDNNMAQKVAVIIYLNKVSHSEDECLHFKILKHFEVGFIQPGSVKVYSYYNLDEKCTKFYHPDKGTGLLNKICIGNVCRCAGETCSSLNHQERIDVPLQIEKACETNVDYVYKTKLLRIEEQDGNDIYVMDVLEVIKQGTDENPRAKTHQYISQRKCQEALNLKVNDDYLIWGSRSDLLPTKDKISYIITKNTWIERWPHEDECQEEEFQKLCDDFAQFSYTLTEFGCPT

[2] = Pharmacokinetic test in rats; format: in vivo, SD rats; settings: for maximum plasma concentration in rats / oral bioavailability in rats / time to peak: compared with LNP023, in words; for bioavailability / Cmax / Tmax / half-life / AUC(0-t): male, SD, rat, plasma, po, i.g. (10 mg/kg); for bioavailability / Cmax / Tmax / half-life / AUC(0-t) / time to peak: rats; for AUC(0-t): read-out: AUC0-24 h
Method: Test objective: In this experiment, a single dose of each test compound was administered to SD rats intravenously and intragastrically, and the concentrations of the test compounds in plasma of rats were measured to evaluate the pharmacokinetic characteristics of the test compounds in rats.
Experimental animals: male SD rats, 200-250 g, 6-8 weeks old, 6 rats/compound, purchased from Chengdu Ddossy Experimental Animals Co., Ltd.
Experimental method: on the day of the test, 6 SD rats were randomly grouped according to their body weight. The animals were fasted with water available for 12 to 14 hours one day before the administration of a test compound, and were fed 4 hours after the administration.
Sampling: Before and after the administration, 0.15 mL of blood sample was drawn from the orbit under isoflurane anesthesia, and placed in an EDTAK2 centrifuge tube. Centrifugation was carried out at 5000 rpm at 4° C. for 10 min, and the plasma was collected.
Time points for plasma collection in IV&PO group: 0, 5 min, 15 min, 30 min, 1 h, 2 h, 4 h, 6 h, 8 h, and 24 h.
(§1) Before analysis and detection, all samples were stored at −60° C. The samples were analyzed quantitatively by LC-MS/MS.

[3] = Pharmacokinetic test of dogs; format: in vivo; settings: male, beagle, dog, plasma, po, i.g. (5 mg/kg)
Method: (§2) Test objective: In this experiment, a single dose of test compounds was administered to beagle dogs intravenously and intragastrically, and the concentrations of the test compounds in plasma of the beagle dogs were measured to evaluate pharmacokinetic characteristics of the test compounds in the beagle dogs.
Experimental animals: Male beagle dogs, 8-11 kg, 1-3 years old, 6 dogs/compound. purchased from Beijing Marshall Biotechnology Co. Ltd.
Experimental method: on the day of the test, 6 beagle dogs were randomly grouped according to their body weights. The animals were fasted with water available for 14 to 18 hours one day before the administration of a test compound, and were fed 4 hours after the administration.
Sampling: Before and after the administration, 1.0 mL of blood was taken from the jugular veins or limb veins, and placed in an EDTAK2 centrifuge tube. Centrifugation was carried out at 5000 rpm at 4° C. for 10 min, and the plasma was collected.
(§3) Time points for plasma collection in IV&PO group: 0, 5 min, 15 min, 30 min, 1 h, 2 h, 4 h, 6 h, 8h, 10 h, 12h, and 24 h.
as §1

Caco2 permeability test = format: in vitro ADME; settings: human, pH 7.4, Caco-2 monolayer, 2 μM, 2 h
Method: (§4) The experiment used a monolayer of Caco-2 cells incubated in triplicate in a 96-well Transwell plate. […] Acetonitrile containing internal standard was then added to precipitate the protein. […] The integrity of the cell monolayer after 2 h of incubation was assessed by leakage of Lucifer Yellow.

Caco-2 cells = experiment: Caco2 permeability test; format: in vitro ADME; settings: Caco2, compared with the trifluoroacetate of LNP023, in words
Method: as §4

[4] = Pharmacokinetic experiment in monkeys; format: in vivo, cynomolgus monkeys; settings: for bioavailability in monkeys / oral exposure in monkeys: compared with the trifluoroacetate of LNP023, in words; for bioavailability / AUC(0-t): male, cynomolgus monkey, plasma, po, monkeys, i.g. (5 mg/kg)
Method: as §2, with “to cynomolgus monkeys” for “to beagle dogs”, “the monkeys” for “the beagle dogs”, “the monkeys.” for “the beagle dogs.”
Experimental animals: Male cynomolgus monkeys, 3-5 kg, 3-6 years old, 6 monkeys/compound. Purchased from Suzhou Xishan Biotechnology Inc.
Experimental method: on the day of the test, 6 monkeys were randomly grouped according to their body weights. The animals were fasted with water available for 14 to 18 hours one day before the administration of a test compound, and were fed 4 hours after the administration.
Sampling: before and after the administration, 1.0 mL of blood was taken from the limb veins, and placed in an EDTAK2 centrifuge tube. Centrifugation was carried out at 5000 rpm at 4° C. for 10 min, and the plasma was collected.
as §3, §1

Structure (SMILES): COc1cc(C)c2[nH]ccc2c1CN1CCC(C2CCCC2)C[C@H]1c1ccc(C(=O)O)cc1 (single isomer, unassigned) [Ammonium of compound 11 (diastereomer 1)]
IC50 [1]: < 200 nM

Structure (SMILES): COc1cc(C)c2[nH]ccc2c1CN1CCN(C2CC2)CC1c1ccc(C(=O)O)cc1 (single isomer, unassigned) [Compound 27-1, 4-(4-cyclopropyl-1-((5-methoxy-7-methyl-1H-indol-4-yl)methyl)piperazin-2-yl)benzoic acid]
IC50 [1]: < 200 nM

Structure (SMILES): COc1cc(C)c2[nH]ccc2c1CN1CCC(C2CCC2)C[C@H]1c1ccc(C(=O)O)cc1 (single isomer, unassigned) [Formate of [compound 8 (diastereomer 1)]]
IC50 [1]: < 200 nM

Structure (SMILES): COCC1CCN(Cc2c(OC)cc(C)c3[nH]ccc23)[C@H](c2ccc(C(=O)O)cc2)C1 (single isomer, unassigned) [Trifluoroacetate of compound 1-a]
IC50 [1]: < 200 nM
IC50 (FB): < 500 nM

Structure (SMILES): COc1cc(C)c2[nH]ccc2c1CN1CCC2(CCCO2)C[C@H]1c1ccc(C(=O)O)cc1 (single isomer, unassigned) [Trifluoroacetate of compound 2-a (diastereomer 1)]
IC50 [1]: < 200 nM

Structure (SMILES): [2H]C([2H])([2H])Oc1cc(C)c2[nH]ccc2c1CN1CCC2(CCCO2)C[C@H]1c1ccc(C(=O)O)cc1 (single isomer, unassigned) [Trifluoroacetate of compound 6]
IC50 [1]: < 200 nM
IC50 (FB): < 500 nM

Structure (SMILES): COc1cc(C)c2[nH]ccc2c1CN1CCC(C2CC2)=C[C@H]1c1ccc(C(=O)O)cc1 [Ammonium salt of compound 12, (S)-4-(4-cyclopropyl-1-((5-methoxy-7-methyl-1H-indol-4-yl)methyl)-1,2,5,6-tetrahydropyridin-2-yl)benzoic acid]
IC50 [1]: < 200 nM

Structure (SMILES): COc1cc(C)c2[nH]ccc2c1CN1CC[C@H](OCC2CC2)C[C@H]1c1ccc(C(=O)O)cc1 [Compound 4, 4-((2S,4S)-4-(cyclopropylmethoxy)-1-((5-methoxy-7-methyl-1H-indol-4-yl)methyl)piperidin-2-yl)benzoic acid]
IC50 [1]: < 200 nM
IC50 (FB): < 500 nM

maximum plasma concentration in rats [2]: higher
oral bioavailability in rats [2]: higher
bioavailability [2]: 57.8%
Cmax [2]: 2240 ng/mL
Tmax [2]: 0.333 h
half-life [2]: 4.15 h
AUC(0-t) [2]: 7920 ng·h/mL
time to peak [2]: shorter
bioavailability [3]: 56.2%
AUC(0-t) [3]: 25300 ng·h/mL
half-life [3]: 8.89 h
efflux ratio at 2 h, 2 μM (Caco2 permeability test): 4.62
Papp A→B at 2 h, 2 μM (Caco2 permeability test): 2.62 ×10⁻⁶ cm/s
Papp B→A at 2 h, 2 μM (Caco2 permeability test): 12.1 ×10⁻⁶ cm/s
efflux ratio (Caco-2 cells): lower
permeability (Caco-2 cells): better
Structure (SMILES): C#C[C@H]1CCN(Cc2c(OC)cc(C)c3[nH]ccc23)[C@H](c2ccc(C(=O)O)cc2)C1 [Compound 10 (diastereomer 1), 4-((2S)-4-ethynyl-1-((5-methoxy-7-methyl-1H-indol-4-yl)methyl)piperidin-2-yl)benzoic acid]
IC50 [1]: < 200 nM

maximum plasma concentration in rats [2]: higher
oral bioavailability in rats [2]: higher
bioavailability [2]: 65.5%
Cmax [2]: 1600 ng/mL
Tmax [2]: 0.583 h
half-life [2]: 3.41 h
AUC(0-t) [2]: 6030 ng·h/mL
time to peak [2]: shorter
bioavailability [3]: > 60%
AUC(0-t) [3]: 36100 ng·h/mL
half-life [3]: 7.26 h
bioavailability in monkeys [4]: higher
oral exposure in monkeys [4]: higher
bioavailability [4]: 70.5 ± 4.5%
AUC(0-t) [4]: 16600 ± 1070 ng·h/mL
efflux ratio at 2 h, 2 μM (Caco2 permeability test): 8.18
Papp A→B at 2 h, 2 μM (Caco2 permeability test): 2.55 ×10⁻⁶ cm/s
Papp B→A at 2 h, 2 μM (Caco2 permeability test): 20.9 ×10⁻⁶ cm/s
efflux ratio (Caco-2 cells): lower
permeability (Caco-2 cells): better
Structure (SMILES): C#CCC1CCN(Cc2c(OC)cc(C)c3[nH]ccc23)[C@H](c2ccc(C(=O)O)cc2)C1 (stereo partly drawn) [Compound 13, 4-((2S)-1-((5-methoxy-7-methyl-1H-indol-4-yl)methyl)-4-(prop-2-yn-1-yl)piperidin-2-yl)benzoic acid]
IC50 [1]: < 200 nM

Structure (SMILES): COCCO[C@H]1CCN(Cc2c(OC)cc(C)c3[nH]ccc23)[C@H](c2ccc(C(=O)O)cc2)C1 [Trifluoroacetate of compound 3, 4-[(2S,4S)-1-[(5-methoxy-7-methyl-1H-indol-4-yl)methyl]-4-(2-methoxyethoxy)piperidin-2-yl]benzoic acid]
IC50 [1]: < 200 nM

Structure (SMILES): COc1cc(C)c2[nH]ccc2c1CN1CC[C@H](C2CC2)C[C@H]1c1ccc(C(=O)O)cc1 [Trifluoroacetate of compound 5-1 (diastereomer 2), 4-((2S)-4-cyclopropyl-1-((5-methoxy-7-methyl-1H-indol-4-yl)methyl)piperidin-2-yl)benzoic acid]
IC50 [1]: < 200 nM

maximum plasma concentration in rats [2]: higher
oral bioavailability in rats [2]: higher
bioavailability [2]: 72.1%
Cmax [2]: 1130 ng/mL
half-life [2]: 3.2 h
AUC(0-t) [2]: 9160 ng·h/mL
bioavailability [3]: 75.5%
AUC(0-t) [3]: 45400 ng·h/mL
half-life [3]: 15.1 h
bioavailability in monkeys [4]: higher
oral exposure in monkeys [4]: higher
bioavailability [4]: 98.3 ± 7.5%
AUC(0-t) [4]: 48300 ± 3660 ng·h/mL
Papp A→B at 2 h, 2 μM (Caco2 permeability test): 1.77 ×10⁻⁶ cm/s
Papp B→A at 2 h, 2 μM (Caco2 permeability test): 19.4 ×10⁻⁶ cm/s
permeability (Caco-2 cells): better
Structure (SMILES): [2H]C([2H])([2H])Oc1cc(C)c2[nH]ccc2c1CN1CC[C@H](C2CC2)C[C@H]1c1ccc(C(=O)O)cc1 [Trifluoroacetate of compound 7 (diastereomer 1), 4-((2S)-4-cyclopropyl-1-((5-(methoxy-d3)-7-methyl-1H-indol-4-yl)methyl)piperidin-2-yl)benzoic acid]
IC50 [1]: < 200 nM
